Entries after “also recorded” stand apart in the source; their conditions may differ.
What was measured:
Format in all cases: in vivo
stressed mice [1] = assay: Tail suspension test (TST), UCMS-stressed mice, Examples 1-3; settings: UCMS-stressed male ICR mice; herbs and NHT 30 mg/kg, escitalopram 15 mg/kg i.p., 3 weeks; vs vehicle
BDNF = BDNF ELISA of hippocampus and PFC, stressed mice; settings: UCMS-stressed mice; herbs and NHT 30 mg/kg, escitalopram 15 mg/kg i.p., 3 weeks; vs vehicle
Procedure: Mice were decapitated, and their brains were placed on ice. Serial sections (1 mm wide) were cut onto slides, and tissue punches of the hippocampus and PFC (1.7 mm diameter) were taken. Tissue punches were homogenized in cold extraction buffer (Tris-buffered saline, pH 8.0, with 1% NP-40, 10% glycerol, 5 mM sodium metavanadate, 10 mM PMSF, 100 μg/ml aprotinin and 10 μg/ml leupeptin). Homogenates were acidified with 0.1 M HCl (pH 3.0), incubated at room temperature (22-24° C.) for 15 min, and neutralized (pH 7.6) with 0.1 M NaOH. Homogenates were then microfuged at 7000×g for 10 min. BDNF levels were quantified using sandwich ELISA (R&D systems, Minneapolis, MN, USA) according to the manufacturer's instructions.

stressed mice [2] = assay: Evaluation of sexual function (number of mounts), stressed mice; settings: UCMS-stressed male mice, 30 min with female in estrus, Shan-zha and NHT 30 mg/kg, escitalopram 15 mg/kg i.p., 3 weeks, vs vehicle
Procedure: Crataegus pinnatifida, Triticum aestivum, Lilium brownii and Fructus zizyphi jujuba were purchased as freeze-dried granules (KPC Products, Inc., Irvine, CA, USA). Each herb was dissolved in saline with 1% dimethylsulfoxide (DMSO) to a final concentration of 0.47 mg/ml and injected i.p. individually (30 mg/kg) or with the other components to form the formula (NHT, 30 mg/kg). […] Vehicle treatment included i.p. injection of saline with 1% DMSO. All treatments were carried out for 3 weeks. Each male mouse was placed with a female mouse in estrus in the male's home cage during the dark phase under red dim light for 30 min. Number of mounts were coded by an observer blind to the treatment.

Ckb gene = assay: Hippocampal RNA-sequencing, gene expression after UCMS; settings: hippocampus; UCMS mice; Shan-zha 30 mg/kg, escitalopram 15 mg/kg, 3 weeks; vs UCMS-exposed saline treated group
Procedure: (§1) An Unbiased genome-wide transcriptomic profiling was conducted to reveal alterations in gene expression in the hippocampus induced by treatment. Male ICR mice were subjected to UCMS, after which they were treated with Shan-zha (30 mg/kg), NHT (30 mg/kg), Esciatlopram (15 mg/kg) or saline for 3 weeks. The anxiolytic-like effect of the treatments was verified by EPM. Subsequently, brains were rapidly removed and RNA was isolated from the hippocampus using RNeasy kit (Qiagen). RNA-sequencing (on NGS) and gene expression analysis was conducted. The analysis yielded a wide range of changes in gene expression.
(§2) First, all samples were normalized and clustered in order to verify that there are no noticeable biases based on batches/process/technician/day.. Next, hit maps were generated, in order to observe the global differences between the groups. After which, a PCA analysis was performed to visualize the separation between the samples. Finally, Differential expression analysis with DESE-Q was done, and changes in gene expression of the following genes, which are highly relevant to anxiety, depression or drug-related side effects were followed: […]

rab11B gene = assay: as above; settings: hippocampus; UCMS mice; Shan-zha 30 mg/kg, escitalopram 15 mg/kg, 3 weeks; vs UCMS-exposed saline treated group
Procedure: as §1, §2

stressed mice [3] = assay: EPM, UCMS-stressed mice, Example 7
Procedure: Animals. ICR outbred mice (Envigo RMS (Harlen), Israel) are kept in the vivarium of the Open University lab in Hadassah medical center, Jerusalem. Mice are kept on a reversed 12 h light/dark cycle and given ad libitum access to food and water. All experiments are performed during the dark phase under red light (7:00-19:00). All experiments have been approved by the committee for animal care and use according to the NIH guidelines. Drugs. Drugs are dissolved in saline and 1% DMSO to the desired concentration and administered i.p. Herbal mixture and Shan-zha (30 mg/kg) will be prepared by dissolving each component (KPC Products, Inc., CA, USA) to a final concentration of 0.47 mg/ml. […] Unpredictable chronic mild stress (UCMS). Mice are exposed to UCMS for 4 weeks at the age of 4 weeks as previously described. Elevated plus maze (EPM). This task is based on the natural tendency of mice to avoid open and elevated places. EPM are performed as previously described. Anxiety-like behavior are expressed as the time the animal spent in the open, unprotected arms of the maze.

stressed mice [4] = assay: Open Field Test (OFT), UCMS-stressed mice, Example 7; settings: 30 mg/kg (escitalopram 15 mg/kg) i.p., 3 weeks, vs vehicle
Procedure: Animals. ICR outbred mice (Envigo RMS (Harlen), Israel) are kept in the vivarium of the Open University lab in Hadassah medical center, Jerusalem. Mice are kept on a reversed 12 h light/dark cycle and given ad libitum access to food and water. All experiments are performed during the dark phase under red light (7:00-19:00). All experiments have been approved by the committee for animal care and use according to the NIH guidelines. Drugs. Drugs are dissolved in saline and 1% DMSO to the desired concentration and administered i.p. Herbal mixture and Shan-zha (30 mg/kg) will be prepared by dissolving each component (KPC Products, Inc., CA, USA) to a final concentration of 0.47 mg/ml. […] Unpredictable chronic mild stress (UCMS). Mice are exposed to UCMS for 4 weeks at the age of 4 weeks as previously described. Open Field Test (OFT). This test reflects the conflict between the innate fear that mice have of the central area of the field versus their desire to explore new environments. When anxious, the natural tendency of mice is to prefer staying close to the walls. […] Anxiety-like behavior is expressed as the time the animal spent in the center area of the field (Walsh, R. N. and R. A. Cummins, Psychol Bull, 1976. 83(3): p. 482-504). Locomotor activity are expressed as the percentage of time that the mouse moved in the arena in a velocity above 0.1 pixel/sec.

stressed mice [5] = assay: Tail Suspension Test (TST), UCMS-stressed mice, Example 7; settings: 30 mg/kg (escitalopram 15 mg/kg) i.p., 3 weeks, vs vehicle
Procedure: Animals. ICR outbred mice (Envigo RMS (Harlen), Israel) are kept in the vivarium of the Open University lab in Hadassah medical center, Jerusalem. Mice are kept on a reversed 12 h light/dark cycle and given ad libitum access to food and water. All experiments are performed during the dark phase under red light (7:00-19:00). All experiments have been approved by the committee for animal care and use according to the NIH guidelines. Drugs. Drugs are dissolved in saline and 1% DMSO to the desired concentration and administered i.p. Herbal mixture and Shan-zha (30 mg/kg) will be prepared by dissolving each component (KPC Products, Inc., CA, USA) to a final concentration of 0.47 mg/ml. […] Unpredictable chronic mild stress (UCMS). Mice are exposed to UCMS for 4 weeks at the age of 4 weeks as previously described. Tail Suspension Test (TST). This test is based upon the evaluation of immobility as a measure of behavioral despair and are performed as previously described. Depressive-like behavior are expressed as the time the mouse was immobile.

## CN(C)CCC[C@@]1(c2ccc(F)cc2)OCc2cc(C#N)ccc21 [escitalopram]
Stressed mice [1]
  time spent immobile in the TST (depressive-like behavior): spent less time immobile in comparison with vehicle-treated mice; also recorded: reduced depressive-like behavior in the Tail suspension test (TST) compared to vehicle
BDNF
  BDNF levels in the PFC: elevations in BDNF levels in the PFC compared to vehicle-treated mice; also recorded: elevated BDNF levels in the PFC compared to vehicle
  hippocampal BDNF levels: elevations in hippocampal BDNF levels compared to vehicle-treated mice; also recorded: elevated hippocampal BDNF levels compared to vehicle
Stressed mice [2]
  sexual function (number of mounts): significantly reduced sexual function compared to vehicle
Stressed mice [2]; listed as Escitalopram
  sexual function (number of mounts): lower number of mounts in comparison with vehicle-treated mice
Ckb gene
  Ckb gene expression: 0.83 fold change
rab11B gene
  RAB11b gene expression: 0.77 fold change
Stressed mice [3]; stressed mice, 30 mg/kg (escitalopram 15 mg/kg) i.p., 3 weeks, vs vehicle
  anxiety-like behavior in the EPM: exhibited reduced anxiety-like behavior in the EPM compared to vehicle-treated stressed mice
Stressed mice [3]; vs saline, fractions SZ 50% and SZ 20% at 3 mg, listed as Escitalopram
  time (seconds) spent in open arms in the EPM, FIG. 22 experiment: Mice treated with saline spent significantly less time in open arms in comparison to other treatment groups
Stressed mice [4]
  anxiety-like behavior in the OFT: exhibited reduced anxiety-like behavior in the OFT compared to vehicle-treated stressed mice
Stressed mice [5]
  depressive-like behavior in the TST: exhibited reduced depressive-like behavior in the TST compared to vehicle-treated stressed mice

Reference: patent publication US20240016875A1, “SHAN-ZHA FOR THE TREATMENT OF DEPRESSION AND ANXIETY DISORDERS” (THE OPEN UNIVERSITY, priority 2020, published 2024)
